Data reported in PMC5218480 (PLoS ONE, 2017).

Test system: MV-4-11 cells
Assay: Gene expression microarray analysis (Affymetrix PrimeView) and GSEA
Format: cell-based, human
Set-up: RFU PODN (11730768_x_at) / Fold change /veh PODN (11730768_x_at) / RFU LINC00158 (11744669_a_at) / Fold change /veh LINC00158 (11744669_a_at) / RFU DUSP10 (11751237_a_at) / Fold change /veh DUSP10 (11751237_a_at) / RFU ID3 (11757404_x_at) / Fold change /veh ID3 (11757404_x_at) / RFU PLEKHG5 (11737974_s_at) / Fold change /veh PLEKHG5 (11737974_s_at) / RFU LRRC4B (11730491_at) / Fold change /veh LRRC4B (11730491_at) / RFU GIMAP4 (11747438_a_at) / Fold change /veh GIMAP4 (11747438_a_at) / RFU KRT8 (11758183_x_at) / Fold change /veh KRT8 (11758183_x_at) / RFU CNN1 (11734310_a_at) / Fold change /veh CNN1 (11734310_a_at) / RFU VPS37D (11726825_at) / Fold change /veh VPS37D (11726825_at) / RFU C10orf10 (11716522_x_at) / Fold change /veh C10orf10 (11716522_x_at) / RFU KIR2DL2 /// KIR2DL4 /// KIR2DL5A /// KIR2DL5B /// KIR2DS1 /// KIR2DS2 /// KIR2DS3 /// KIR2DS4 /// KIR3DL3 /// KIR3DL3 /// KIR3DS1 (11738374_at) / Fold change /veh KIR2DL2 /// KIR2DL4 /// KIR2DL5A /// KIR2DL5B /// KIR2DS1 /// KIR2DS2 /// KIR2DS3 /// KIR2DS4 /// KIR3DL3 /// KIR3DL3 /// KIR3DS1 (11738374_at) / RFU C1QL1 (11718748_at) / Fold change /veh C1QL1 (11718748_at) / RFU TMPRSS4 (11747572_a_at) / Fold change /veh TMPRSS4 (11747572_a_at) / RFU HAMP (11756126_x_at) / Fold change /veh HAMP (11756126_x_at) / RFU RNFT2 (11725882_a_at) / Fold change /veh RNFT2 (11725882_a_at) / RFU NR4A2 (11747474_a_at) / Fold change /veh NR4A2 (11747474_a_at) / RFU ABCC12 (11746883_a_at) / Fold change /veh ABCC12 (11746883_a_at) / RFU TMEM136 (11760407_x_at) / Fold change /veh TMEM136 (11760407_x_at) / RFU CLDN22 /// WWC2 (11732394_at) / Fold change /veh CLDN22 /// WWC2 (11732394_at) / RFU HLA-DPB1 (11760878_x_at) / Fold change /veh HLA-DPB1 (11760878_x_at) / RFU SPINT1 (11716480_a_at) / Fold change /veh SPINT1 (11716480_a_at) / RFU GAP43 (11754022_s_at) / Fold change /veh GAP43 (11754022_s_at) / RFU A4GNT (11735810_at) / Fold change /veh A4GNT (11735810_at) / RFU PRB3 (11715151_x_at) / Fold change /veh PRB3 (11715151_x_at) / RFU TUBB4B (11761932_at) / Fold change /veh TUBB4B (11761932_at) / RFU CAPN14 (11732068_a_at) / Fold change /veh CAPN14 (11732068_a_at) / RFU TMCC2 (11721928_a_at) / Fold change /veh TMCC2 (11721928_a_at) / RFU IRGQ (11745062_a_at) / Fold change /veh IRGQ (11745062_a_at) / RFU FAM174B (11720279_a_at) / Fold change /veh FAM174B (11720279_a_at) / RFU TMPRSS4 (11748680_a_at) / Fold change /veh TMPRSS4 (11748680_a_at) / RFU FAM212B (11763350_a_at) / Fold change /veh FAM212B (11763350_a_at) / RFU PLEKHG5 (11743358_a_at) / Fold change /veh PLEKHG5 (11743358_a_at) / RFU ZSCAN30 (11745921_a_at) / Fold change /veh ZSCAN30 (11745921_a_at) / RFU CMKLR1 (11741424_a_at) / Fold change /veh CMKLR1 (11741424_a_at) / RFU LOC101060620 /// MAPK8IP1 (11723275_at) / Fold change /veh LOC101060620 /// MAPK8IP1 (11723275_at) / RFU SPTSSB (11747773_x_at) / Fold change /veh SPTSSB (11747773_x_at) / RFU PRSS12 (11739890_at) / Fold change /veh PRSS12 (11739890_at) / RFU BIN1 (11741810_x_at) / Fold change /veh BIN1 (11741810_x_at) / RFU WNT11 (11732464_a_at) / Fold change /veh WNT11 (11732464_a_at) / RFU C10orf10 (11716521_a_at) / Fold change /veh C10orf10 (11716521_a_at) / RFU C5orf56 (11738089_at) / Fold change /veh C5orf56 (11738089_at) / RFU CYB561 (11721691_x_at) / Fold change /veh CYB561 (11721691_x_at) / RFU ANKRD19P (11752326_a_at) / Fold change /veh ANKRD19P (11752326_a_at) / RFU OR2T12 /// OR2T33 /// OR2T8 (11738714_s_at) / Fold change /veh OR2T12 /// OR2T33 /// OR2T8 (11738714_s_at) / RFU VCAN (11748164_a_at) / Fold change /veh VCAN (11748164_a_at) / RFU JSRP1 (11732532_at) / Fold change /veh JSRP1 (11732532_at) / RFU KRTAP10-11 (11738290_x_at) / Fold change /veh KRTAP10-11 (11738290_x_at) / RFU MYO3A (11730013_a_at) / Fold change /veh MYO3A (11730013_a_at) / RFU EBF3 (11725865_a_at) / Fold change /veh EBF3 (11725865_a_at) / RFU CAMK2N1 (11719241_x_at) / Fold change /veh CAMK2N1 (11719241_x_at) / RFU C5orf56 (11738088_a_at) / Fold change /veh C5orf56 (11738088_a_at) / RFU OLFML3 (11715873_a_at) / Fold change /veh OLFML3 (11715873_a_at) / RFU LOC100653217 /// NTM (11731650_a_at) / Fold change /veh LOC100653217 /// NTM (11731650_a_at) / RFU MAPK11 (11762145_a_at) / Fold change /veh MAPK11 (11762145_a_at) / RFU FIZ1 (11724087_x_at) / Fold change /veh FIZ1 (11724087_x_at) / RFU OASL (11726364_x_at) / Fold change /veh OASL (11726364_x_at) / RFU SOX15 (11748057_x_at) / Fold change /veh SOX15 (11748057_x_at) / RFU CD79A (11719716_a_at) / Fold change /veh CD79A (11719716_a_at) / RFU HIST1H1D (11736915_at) / Fold change /veh HIST1H1D (11736915_at) / RFU CASKIN2 (11723855_a_at) / Fold change /veh CASKIN2 (11723855_a_at) / RFU LOC730098 (11760151_x_at) / Fold change /veh LOC730098 (11760151_x_at) / RFU OR4N2 (11742367_at) / Fold change /veh OR4N2 (11742367_at) / RFU PRRT2 (11749266_a_at) / Fold change /veh PRRT2 (11749266_a_at) / RFU SNX32 (11753110_a_at) / Fold change /veh SNX32 (11753110_a_at) / RFU CDHR5 (11726645_a_at) / Fold change /veh CDHR5 (11726645_a_at) / RFU RCAN1 (11760418_a_at) / Fold change /veh RCAN1 (11760418_a_at) / RFU FAM167A (11723789_a_at) / Fold change /veh FAM167A (11723789_a_at) / RFU FAM26E (11764081_at) / Fold change /veh FAM26E (11764081_at) / RFU ISYNA1 (11749810_s_at) / Fold change /veh ISYNA1 (11749810_s_at) / RFU ACY1 (11761880_at) / Fold change /veh ACY1 (11761880_at) / RFU 11764098_at / Fold change /veh 11764098_at / RFU SAMD14 (11745864_x_at) / Fold change /veh SAMD14 (11745864_x_at) / RFU NPB (11741838_a_at) / Fold change /veh NPB (11741838_a_at) / RFU TMPRSS6 (11731388_a_at) / Fold change /veh TMPRSS6 (11731388_a_at) / RFU KRTAP10-2 (11738614_at) / Fold change /veh KRTAP10-2 (11738614_at) / RFU ARHGAP8 /// PRR5-ARHGAP8 (11727945_x_at) / Fold change /veh ARHGAP8 /// PRR5-ARHGAP8 (11727945_x_at) / RFU KRTAP5-7 /// NADSYN1 (11734609_at) / Fold change /veh KRTAP5-7 /// NADSYN1 (11734609_at) / RFU RASL12 (11751679_a_at) / Fold change /veh RASL12 (11751679_a_at) / RFU CDKN2B (11736163_a_at) / Fold change /veh CDKN2B (11736163_a_at) / RFU PRF1 (11729649_at) / Fold change /veh PRF1 (11729649_at) / RFU, ZNF638 /// ZNF638-IT1 / Fold change vs veh, ZNF638 /// ZNF638-IT1 / RFU, PANK3 / Fold change vs veh, PANK3 / RFU, SH3YL1 / Fold change vs veh, SH3YL1 / RFU, ZEB2 / Fold change vs veh, ZEB2 / RFU, NRIP1 / Fold change vs veh, NRIP1 / RFU, PTTG1IP / Fold change vs veh, PTTG1IP / RFU, CAPN2 / Fold change vs veh, CAPN2 / RFU, MED14 / Fold change vs veh, MED14 / RFU, SNORA58 / Fold change vs veh, SNORA58 / RFU, C1orf63 / Fold change vs veh, C1orf63 / RFU, LRRFIP1 / Fold change vs veh, LRRFIP1 / RFU, NDUFAF7 / Fold change vs veh, NDUFAF7 / RFU, SLC12A2 / Fold change vs veh, SLC12A2 / RFU, IBTK / Fold change vs veh, IBTK / RFU, ESF1 / Fold change vs veh, ESF1 / Fold change vs veh, TMEM50B / RFU, TAOK1 / Fold change vs veh, TAOK1 / RFU, ACBD3 / Fold change vs veh, ACBD3 / RFU, TMA16 / Fold change vs veh, TMA16 / RFU, RWDD3 / Fold change vs veh, RWDD3 / RFU, BCAT1 / Fold change vs veh, BCAT1 / RFU, EDEM3 / Fold change vs veh, EDEM3 / RFU, TMEM33 / Fold change vs veh, TMEM33 / RFU, WDR75 / Fold change vs veh, WDR75 / RFU, AHCTF1 / Fold change vs veh, AHCTF1 / RFU, TFRC / Fold change vs veh, TFRC / RFU, ZDHHC17 / Fold change vs veh, ZDHHC17 / RFU, NOM1 / Fold change vs veh, NOM1 / RFU, ARL8B / Fold change vs veh, ARL8B / RFU, ZBTB11 / Fold change vs veh, ZBTB11 / RFU, TAMM41 / Fold change vs veh, TAMM41 / RFU, KIAA1704 /// LOC100996395 / Fold change vs veh, KIAA1704 /// LOC100996395 / RFU, ING1 / Fold change vs veh, ING1 / RFU, TRMT61B / Fold change vs veh, TRMT61B / RFU, FUBP3 / Fold change vs veh, FUBP3 / RFU, TP53 / Fold change vs veh, TP53 / RFU, TNKS2 / Fold change vs veh, TNKS2 / RFU, ZFP14 / Fold change vs veh, ZFP14 / RFU, ACTR2 / Fold change vs veh, ACTR2 / RFU, PPP3R1 / Fold change vs veh, PPP3R1 / RFU, PIK3R1 / Fold change vs veh, PIK3R1 / RFU, HNRNPA1 / Fold change vs veh, HNRNPA1 / RFU, RNF170 / Fold change vs veh, RNF170 / RFU, ZNF28 / Fold change vs veh, ZNF28 / RFU, RNGTT / Fold change vs veh, RNGTT / RFU, OGT / Fold change vs veh, OGT / RFU, BRD1 / Fold change vs veh, BRD1 / RFU, MARS / Fold change vs veh, MARS / RFU, ZNF655 / Fold change vs veh, ZNF655 / RFU, FAHD1 / Fold change vs veh, FAHD1 / RFU, BDP1 / Fold change vs veh, BDP1 / RFU, LRRCC1 / Fold change vs veh, LRRCC1 / RFU, ARID1A / Fold change vs veh, ARID1A / RFU, ZNF146 / Fold change vs veh, ZNF146 / RFU, ZNF330 / Fold change vs veh, ZNF330 / RFU, GPN3 / Fold change vs veh, GPN3 / RFU, C9orf123 / Fold change vs veh, C9orf123 / RFU, N4BP2L2 / Fold change vs veh, N4BP2L2 / RFU, ARFIP1 / Fold change vs veh, ARFIP1 / RFU, FAM179B / Fold change vs veh, FAM179B / RFU, BCL10 / Fold change vs veh, BCL10 / RFU, UHRF1BP1L / Fold change vs veh, UHRF1BP1L / RFU, BET1 / Fold change vs veh, BET1 / RFU, CNOT2 / Fold change vs veh, CNOT2 / RFU, ZNF268 / Fold change vs veh, ZNF268 / Fold change vs veh, ZNF507 / RFU, DGCR2 / Fold change vs veh, DGCR2 / RFU, WDSUB1 / Fold change vs veh, WDSUB1 / Fold change vs veh, HSP90B1 /// MIR3652 / RFU, ADSS / Fold change vs veh, ADSS / RFU, GK / Fold change vs veh, GK / RFU, ZNF148 / Fold change vs veh, ZNF148 / RFU, TAF9 / Fold change vs veh, TAF9 / RFU, SLC1A5 / Fold change vs veh, SLC1A5 / RFU, SLMO2 / Fold change vs veh, SLMO2 / RFU, ABCC4 / Fold change vs veh, ABCC4 / RFU, LOC101060439 /// RAP1B / Fold change vs veh, LOC101060439 /// RAP1B / RFU, RFX7 / Fold change vs veh, RFX7 / RFU, GTPBP10 / Fold change vs veh, GTPBP10 / RFU, CNEP1R1 / Fold change vs veh, CNEP1R1 / RFU, BIVM-ERCC5 /// ERCC5 / Fold change vs veh, BIVM-ERCC5 /// ERCC5 / RFU, ILF3 / Fold change vs veh, ILF3 / RFU 11762660_at / Fold change /veh 11762660_at / RFU VCAN (11757783_s_at) / Fold change /veh VCAN (11757783_s_at) / RFU DDX43 (11728927_at) / Fold change /veh DDX43 (11728927_at) / RFU KRT8 (11758188_x_at) / Fold change /veh KRT8 (11758188_x_at) / RFU NKD1 (11759106_at) / Fold change /veh NKD1 (11759106_at) / RFU SRD5A1 (11742802_a_at) / Fold change /veh SRD5A1 (11742802_a_at) / RFU TPSAB1 /// TPSB2 (11721975_s_at) / Fold change /veh TPSAB1 /// TPSB2 (11721975_s_at) / RFU GSTM3 (11746129_a_at) / Fold change /veh GSTM3 (11746129_a_at) / RFU IL23R (11737362_x_at) / Fold change /veh IL23R (11737362_x_at) / RFU TMEM51 (11727254_a_at) / Fold change /veh TMEM51 (11727254_a_at) / RFU PIWIL2 (11732686_x_at) / Fold change /veh PIWIL2 (11732686_x_at) / RFU ORM1 (11744905_x_at) / Fold change /veh ORM1 (11744905_x_at) / RFU CCDC152 (11743942_at) / Fold change /veh CCDC152 (11743942_at) / RFU ECM1 (11717891_a_at) / Fold change /veh ECM1 (11717891_a_at) / RFU IL23R (11748794_a_at) / Fold change /veh IL23R (11748794_a_at) / RFU TNFAIP8L3 (11732012_x_at) / Fold change /veh TNFAIP8L3 (11732012_x_at) / RFU MBOAT4 (11741988_at) / Fold change /veh MBOAT4 (11741988_at) / RFU 11764193_at / Fold change /veh 11764193_at / RFU TMEM53 (11763286_at) / Fold change /veh TMEM53 (11763286_at) / RFU MAGEB2 (11727129_at) / Fold change /veh MAGEB2 (11727129_at) / RFU TMEM200A (11744735_a_at) / Fold change /veh TMEM200A (11744735_a_at) / RFU CCDC152 (11751479_a_at) / Fold change /veh CCDC152 (11751479_a_at) / RFU FAM211A (11726209_a_at) / Fold change /veh FAM211A (11726209_a_at) / RFU RGS16 (11746705_a_at) / Fold change /veh RGS16 (11746705_a_at) / RFU VCAN (11755009_s_at) / Fold change /veh VCAN (11755009_s_at) / RFU RHOB (11743442_s_at) / Fold change /veh RHOB (11743442_s_at) / RFU RGS16 (11720943_a_at) / Fold change /veh RGS16 (11720943_a_at) / RFU RGS16 (11720944_at) / Fold change /veh RGS16 (11720944_at) / RFU, VPS4B / Fold change vs veh, VPS4B / RFU, CREB1 / Fold change vs veh, CREB1 / RFU, DNAJC13 / Fold change vs veh, DNAJC13 / RFU, GNAQ / Fold change vs veh, GNAQ / RFU, CDK5R1 / Fold change vs veh, CDK5R1 / RFU, ZRANB3 / Fold change vs veh, ZRANB3 / RFU, CUL4A / Fold change vs veh, CUL4A / RFU, CCNY / Fold change vs veh, CCNY / RFU, UFL1 / Fold change vs veh, UFL1 / RFU, COG3 / Fold change vs veh, COG3 / RFU, DIAPH2 / Fold change vs veh, DIAPH2 / RFU, SKA2 / Fold change vs veh, SKA2 / RFU, AFF3 / Fold change vs veh, AFF3 / RFU, LMF1 / Fold change vs veh, LMF1 / RFU, IPO11 / Fold change vs veh, IPO11 / RFU, DFFB / Fold change vs veh, DFFB / RFU, FOXP1 / Fold change vs veh, FOXP1 / RFU, CARD8 / Fold change vs veh, CARD8 / RFU, STRN3 / Fold change vs veh, STRN3 / RFU, ADK / Fold change vs veh, ADK / RFU, RASSF2 / Fold change vs veh, RASSF2 / RFU, WIPF1 / Fold change vs veh, WIPF1 / RFU, LARP1B / Fold change vs veh, LARP1B / RFU, RASA1 / Fold change vs veh, RASA1 / RFU, RB1 / Fold change vs veh, RB1 / RFU, PPFIA1 / Fold change vs veh, PPFIA1 / RFU, MAT2A / Fold change vs veh, MAT2A / RFU, CCT5 / Fold change vs veh, CCT5 / RFU, WDR92 / Fold change vs veh, WDR92 / RFU, CUX1 / Fold change vs veh, CUX1 / RFU, TTC7A / Fold change vs veh, TTC7A / RFU, TMEM135 / Fold change vs veh, TMEM135 / RFU, DEPTOR / Fold change vs veh, DEPTOR / RFU, CPM / Fold change vs veh, CPM / RFU, DNAJB6 / Fold change vs veh, DNAJB6 / RFU, CACNA2D3 / Fold change vs veh, CACNA2D3 / RFU, DTX4 / Fold change vs veh, DTX4 / RFU, TFCP2 / Fold change vs veh, TFCP2 / RFU, GMCL1 /// GMCL1P1 / Fold change vs veh, GMCL1 /// GMCL1P1 / RFU, AEBP2 / Fold change vs veh, AEBP2 / RFU, SNHG1 /// SNORD22 /// SNORD25 /// SNORD26 /// SNORD27 /// SNORD28 /// SNORD29 /// SNORD31 / Fold change vs veh, SNHG1 /// SNORD22 /// SNORD25 /// SNORD26 /// SNORD27 /// SNORD28 /// SNORD29 /// SNORD31 / Fold change (Aza/veh), C12orf56 (ProbeSet 11735607_a_at) / Fold change (ACY-1035/veh), C12orf56 (ProbeSet 11735607_a_at) / Fold change (Aza/veh), FGFR1OP (ProbeSet 11751329_s_at) / Fold change (ACY-1035/veh), FGFR1OP (ProbeSet 11751329_s_at) / Fold change (Aza/veh), VPS36 (ProbeSet 11739960_a_at) / Fold change (ACY-1035/veh), VPS36 (ProbeSet 11739960_a_at) / RFU SYPL1 (11715823_x_at) / Fold change /veh SYPL1 (11715823_x_at) / RFU IGFBP7 (11715501_s_at) / Fold change /veh IGFBP7 (11715501_s_at) / RFU REEP3 (11722064_at) / Fold change /veh REEP3 (11722064_at) / RFU IGLL1 (11728026_x_at) / Fold change /veh IGLL1 (11728026_x_at): dose or concentration left out as unconfirmed
Conditions: ProbeSet 11743362_s_at; LIST B

Nc1ncn([C@@H]2O[C@H](CO)[C@@H](O)[C@H]2O)c(=O)n1 [azacitidine]
RFU, ADSS: 624.28 RFU
